Experimental data from publication PMC3489612, “Exploring flubendazole formulations for use in sheep. Pharmacokinetic evaluation of a cyclodextrin-based solution” (BMC Veterinary Research, 2012).
≈ marks a conversion by molar mass, not a printed value.

What was measured:
[1] = In vitro aqueous solubility of BZD compounds with or without HPßCD (10%); conditions: for aqueous solubility: 25°C, n = 6, mean ± SD; for HPßCD-induced solubility increasing effect: pH 1.2, with versus without HPßCD (10%); for solubility at 2 weeks: 25 °C, thermodynamic from solid
Experimental: BZD solubilities were determined in aqueous solutions at pH values of 1.2 (HCl/KCl) and 7.4 (KH2PO4) with or without HPßCD (10%). An excess amount of ABZ, ABZSO, MBZ, OFZ or FLBZ was suspended in glass tubes containing 10 mL of each medium. The tubes were placed in a water bath at 25°C with a constant shaken rate of 100 strokes/min for two weeks (Yamato BT-31, Yamato Scientific Co., Japan). […] The supernatants were collected and filtered through a 0.2 μm filter (Whatman Inc., NJ, USA). After filtration, samples were analyzed for drug quantification by HPLC following the method described below.
Experimental and fortified samples of plasma and abomasal fluid were analyzed for FLBZ, R-FLBZ, H-FLBZ and the internal standard (OBZ) by HPLC following the method described by Moreno et al.. Briefly, 50 μL of sample were injected in a Shimadzu 10 A HPLC System (Kyoto, Japan), using an UV detector set at 292 nm, an autosampler and a controller (Shimadzu Class LC10, Kyoto, Japan). Elution from the stationary phase (Selectosil C18 column, 5 μm, 250 × 4.6 mm, Phenomenex®, CA, USA) has been carried out at a flow rate of 1.2 mL/min, using a mixture of acetonitrile:potassium phosphate buffer (25 mM, pH 5.3) (40:60) as a mobile phase, during 13 min at 30°C.

parasite motility = tested on: parasite motility; design: method as in PMID 9421720; conditions: cited from earlier work
ß-tubulin = tested on: ß-tubulin; design: method as in PMID 15463312; conditions: cited from earlier work
[2] = in vivo
Experimental: (§1) FLBZ-solution (2% w/v) was prepared by dissolution of 2 g of pure FLBZ and 10 g of HPßCD in 100 mL of dionized water (pH 1.2). The pH was adjusted using hydrochloric acid (25 mM). The formulation was shaken during 48 h (40°C) and then was filtrated through a 0.45 μm filter (Whatman, NJ, USA). The final FLBZ concentration was confirmed by HPLC (n = 4). The FLBZ suspension (2% w/v) was performed by addition of 2 g FLBZ pure standard in a suspension of CMC (0.5% w/v) prepared with deionized water (100 mL, pH = 6.0) under shaking (24 h). The FLBZ suspension was vigorously shaken before its administration to sheep.
(§2) Six (6) parasite-free Corriedale male sheep (average weight: 50.6 ± 6.0 kg) were used in this experiment. Animals were kept indoors with commercial balanced food and water ad libitum for two months prior and during the trial. Four (4) animals were surgically fitted with a permanent cannula in the pyloric region of the abomasum following an adaptation of the technique described by Komarek. A 6-week post-surgery recovery period was allowed before starting the pharmacokinetic trials. […]
(§3) Experimental and fortified samples of plasma and abomasal fluid were analyzed for FLBZ, R-FLBZ, H-FLBZ and the internal standard (OBZ) by HPLC following the method described by Moreno et al.. […]

[3] = Abomasal fluid pharmacokinetics after intraruminal (i.r.) administration of FLBZ formulations (Experiment 1); type: in vivo; conditions: sheep, after i.r. FLBZ administration as both formulations
Experimental: as §1, §2, §3

[4] = aqueous solution (HCl/KCl) with 10% HPβCD, pH 1.2, aqueous with cosolvent or surfactant or cyclodextrin
[5] = aqueous solution (HCl/KCl) without HPβCD, pH 1.2, simulated gastric fluid
[6] = aqueous solution (KH2PO4) with 10% HPβCD, pH 7.4, aqueous with cosolvent or surfactant or cyclodextrin

Which highest aqueous solubility ([1]; pH 1.2 (value of Table 1 with HPßCD)) does the source give for `CCC[S+]([O-])c1ccc2[nH]c(NC(=O)OC)nc2c1` (centres unmarked) [Albendazole sulphoxide, albendazole sulphoxide] here?
Its highest aqueous solubility is 6600 ± 1300 µg/mL.

What about the aqueous solubility ([1]; pH 1.2, with HPßCD (10%)) of the same compound?
The aqueous solubility was 6637.7 ± 1370.2 µg/mL (≈ 23600 µM).

And the “HPßCD-induced solubility increasing effect” value [1]?
The value was 0.7 fold.

And the aqueous solubility ([1]; pH 1.2, without HPßCD)?
The aqueous solubility was 3818.6 ± 202.1 µg/mL (≈ 13600 µM).

What about the aqueous solubility ([1]; pH 7.4, with HPßCD (10%)) of the same compound?
The aqueous solubility was 871.9 ± 129.3 µg/mL (≈ 3100 µM).

And the aqueous solubility ([1]; pH 7.4, without HPßCD)?
Its aqueous solubility is 83.6 ± 7.6 µg/mL (≈ 297 µM).

What does the source list for `CCCSc1ccc2nc(NC(=O)OC)[nH]c2c1` [Albendazole]?
solubility at 2 weeks ([1]; pH 1.2, aqueous with cosolvent or surfactant or cyclodextrin): 921 ± 347 µg/mL (≈ 3470 µM); solubility at 2 weeks ([1]; pH 1.2, simulated gastric fluid): 406 ± 53.4 µg/mL (≈ 1530 µM); solubility at 2 weeks ([1]; pH 7.4, aqueous buffer): 4.6 ± 1.3 µg/mL (≈ 17.3 µM); solubility at 2 weeks ([1]; pH 7.4, aqueous with cosolvent or surfactant or cyclodextrin): 43 ± 8.3 µg/mL (≈ 162 µM); HPßCD-induced solubility increasing effect [1]: 1.3 fold

What does the source list for `COC(=O)Nc1nc2cc(C(=O)c3ccc(F)cc3)ccc2[nH]1` [Flubendazole]?
potency in parasite motility test (parasite motility): high potency; affinity binding for ß-tubulin (ß-tubulin): high affinity binding; solubility at 2 weeks [1, 4]: 2250 ± 552 µg/mL (≈ 7190 µM); solubility at 2 weeks [1, 5]: 29.6 ± 2.8 µg/mL (≈ 94.5 µM); solubility at 2 weeks [1, 6]: 164 ± 120 µg/mL (≈ 523 µM); solubility at 2 weeks ([1]; aqueous solution (KH2PO4) without HPβCD, pH 7.4, aqueous buffer): 5.8 ± 7 µg/mL (≈ 18.5 µM)

With `Nc1nc2ccc(C(=O)c3ccc(F)cc3)cc2[nH]1` [H-FLBZ] as the compound, how does the “time of detection in plasma (low concentrations)” value [2] read?
Its value is 18 to 48 h.

Which results are given for `COC(=O)Nc1nc2ccc([S+]([O-])c3ccccc3)cc2[nH]1` (centres unmarked) [Oxfendazole, oxfendazole]?
solubility at 2 weeks [1, 4]: 1900 ± 606 µg/mL (≈ 6030 µM); solubility at 2 weeks [1, 5]: 420 ± 29.2 µg/mL (≈ 1330 µM); solubility at 2 weeks [1, 6]: 348 ± 46.8 µg/mL (≈ 1100 µM); HPßCD-induced solubility increasing effect [1]: 35 fold

For `COC(=O)Nc1nc2ccc(C(O)c3ccc(F)cc3)cc2[nH]1` (centres unmarked) [R-FLBZ, reduced flubendazole], which “time of detection in abomasal fluid post-treatment” value [3] is on record?
The value was “up to 96 h”.
